Data taken from US12173018B2, “Penicillin-binding protein inhibitors” (priority 2018, dated 2024).
≈ marks a conversion by molar mass, not a printed value. Where two headings read alike, the source gives them in different places.

Assays:
[1] = tested on: engineered strain of Escherichia coli harboring CTX-M15; assay: microbe, parasite or virus in culture; format: cell-based; conditions: Escherichia coli
E. coli PBP1a = E. coli PBP1a (Escherichia coli (strain K12), UniProt P02918); assay: Radioligand competition binding assay with 14C-labeled boronic acid probe, PBP1a
E. coli PBP1a, sequence (P02918 whole entry): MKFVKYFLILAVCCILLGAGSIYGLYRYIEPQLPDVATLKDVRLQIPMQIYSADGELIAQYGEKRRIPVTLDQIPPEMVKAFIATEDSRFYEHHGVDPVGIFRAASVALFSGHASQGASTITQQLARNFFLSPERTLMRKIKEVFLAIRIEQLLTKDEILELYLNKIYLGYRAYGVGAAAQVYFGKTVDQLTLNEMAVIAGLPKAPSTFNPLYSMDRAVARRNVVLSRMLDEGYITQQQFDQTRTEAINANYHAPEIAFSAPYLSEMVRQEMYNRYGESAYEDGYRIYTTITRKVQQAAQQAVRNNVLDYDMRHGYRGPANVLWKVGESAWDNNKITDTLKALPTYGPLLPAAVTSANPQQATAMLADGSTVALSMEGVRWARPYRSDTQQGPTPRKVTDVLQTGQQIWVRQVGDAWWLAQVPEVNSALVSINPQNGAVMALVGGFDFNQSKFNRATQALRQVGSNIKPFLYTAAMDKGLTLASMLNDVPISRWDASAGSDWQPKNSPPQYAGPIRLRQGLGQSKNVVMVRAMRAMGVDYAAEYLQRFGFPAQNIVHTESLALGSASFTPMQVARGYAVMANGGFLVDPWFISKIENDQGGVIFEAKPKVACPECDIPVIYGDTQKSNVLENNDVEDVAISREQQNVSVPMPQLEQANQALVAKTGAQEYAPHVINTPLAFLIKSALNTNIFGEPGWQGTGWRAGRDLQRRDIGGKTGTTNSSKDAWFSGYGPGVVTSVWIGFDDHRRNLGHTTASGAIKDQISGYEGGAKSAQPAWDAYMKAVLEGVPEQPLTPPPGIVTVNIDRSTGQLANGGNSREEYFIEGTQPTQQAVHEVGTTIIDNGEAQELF
How it was run: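 Purified E. coli PBP1a (0.1 μM) preincubated 60 min with test boronic acid inhibitor in 20 mM Tris pH 7.5, 500 mM NaCl, 0.1% Triton X-100, then 60 min with 20 μM ^14C-labeled boronic acid probe. Bound probe recovered by spin desalting and counted by scintillation; EC50 reported.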

[2] = tested on: E. coli DH5α empty pLBII vector control strain; assay: microbe, parasite or virus in culture; format: cell-based, Escherichia coli; conditions: Escherichia coli, read-out: Microbiological Activity (MIC in mg/L), E. coli DH5α/pLBII
How it was run: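 MIC was the lowest concentration visibly free of growth after 16–20 h at 37 °C, against 5×10^5 CFU/mL of the empty-pLBII DH5α control strain. Twofold compound dilutions were made in cation-adjusted Mueller-Hinton broth.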

[3] = read-out: Microbiological Activity (MIC in mg/L), E. coli DH5α/pLBII-CTX-M15, engineered strain producing CTX-M15

SMILES | MIC [1, 3] [mg/L] | EC50 (E. coli PBP1a) [µM] | also measured
O=C(O)c1cccc2c1OB(O)[C@@H](NC(=O)C(NC(=O)N1CCN(CCF)C(=O)C1=O)c1ccc(B(O)O)cc1)C2 (stereo partly drawn) [Example 113, (3R)-3-(2-(4-boronophenyl)-2-(4-(2-fluoroethyl)-2,3-dioxopiperazine-1-carboxamido)acetamido)-2-hydroxy-3,4-dihydro-2H-benzo[e][1,2]oxaborinine-8-carboxylic acid] | 32 to 64 (≈ 56.1 to 112 µM) | – | –
CCN1CCN(C(=O)N[C@@H](C(=O)N[C@H]2Cc3ccc(F)c(C(=O)O)c3OB2O)[C@@H](C)O)C(=O)C1=O [Example 110, (R)-3-((2R,3R)-2-(4-ethyl-2,3-dioxopiperazine-1-carboxamido)-3-hydroxybutanamido)-7-fluoro-2-hydroxy-3,4-dihydro-2H-benzo[e][1,2]oxaborinine-8-carboxylic acid] | 8 to 16 (≈ 16.2 to 32.4 µM) | – | –
CCN1CCN(C(=O)NC(C(=O)N[C@H]2Cc3cccc(C(=O)[O-])c3OB2O)c2ccc[n+](CC(N)=O)c2)C(=O)C1=O (stereo partly drawn) [Example 107, (3R)-3-(2-(1-(2-amino-2-oxoethyl)pyridin-1-ium-3-yl)-2-(4-ethyl-2,3-dioxopiperazine-1-carboxamido)acetamido)-2-hydroxy-3,4-dihydro-2H-benzo[e][1,2]oxaborinine-8-carboxylate] | 32 to 64 (≈ 56.5 to 113 µM) | – | –
CCN1CCN(C(=O)NC(C(=O)N[C@H]2Cc3cccc(C(=O)O)c3OB2O)c2ccc(O)cc2)C(=O)C1=O (stereo partly drawn) [Example 27, (3R)-3-(2-(4-ethyl-2,3-dioxopiperazine-1-carboxamido)-2-(4-hydroxyphenyl)acetamido)-2-hydroxy-3,4-dihydro-2H-benzo[e][1,2]oxaborinine-8-carboxylic acid] | 8 to 16 (≈ 15.3 to 30.5 µM) | < 10 | MIC [2]: 8 to 16 mg/L (≈ 15.3 to 30.5 µM)
CCN1CCN(C(=O)NC(C(=O)N[C@H]2Cc3cccc(C(=O)O)c3OB2O)c2ccc(S(N)(=O)=O)cc2)C(=O)C1=O (stereo partly drawn) [Example 102, (3R)-3-(2-(4-ethyl-2,3-dioxopiperazine-1-carboxamido)-2-(4-sulfamoylphenyl)acetamido)-2-hydroxy-3,4-dihydro-2H-benzo[e][1,2]oxaborinine-8-carboxylic acid] | 8 to 16 (≈ 13.6 to 27.2 µM) | 10 to 100 | –
CCN1CCN(C(=O)NC(C(=O)N[C@H]2Cc3cccc(C(=O)O)c3OB2O)c2csc(N)n2)C(=O)C1=O (stereo partly drawn) [Example 5, (3R)-3-(2-(2-aminothiazol-4-yl)-2-(4-ethyl-2,3-dioxopiperazine-1-carboxamido)acetamido)-2-hydroxy-3,4-dihydro-2H-benzo[e][1,2]oxaborinine-8-carboxylic acid] | – | < 10 | –
CCCN1CCN(C(=O)NC(C(=O)N[C@H]2Cc3cccc(C(=O)O)c3OB2O)c2ccc(O)c(O)c2Cl)C(=O)C1=O (stereo partly drawn) [Example 82, (3R)-3-(2-(2-chloro-3,4-dihydroxyphenyl)-2-(2,3-dioxo-4-propylpiperazine-1-carboxamido)acetamido)-2-hydroxy-3,4-dihydro-2H-benzo[e][1,2]oxaborinine-8-carboxylic acid] | 32 to 64 (≈ 54.4 to 109 µM) | – | –
CCN1CCN(C(=O)NC(C(=O)N[C@H]2Cc3cc(F)cc(C(=O)O)c3OB2O)c2csc(N)n2)C(=O)C1=O (stereo partly drawn) [Example 16, (3R)-3-(2-(2-aminothiazol-4-yl)-2-(4-ethyl-2,3-dioxopiperazine-1-carboxamido)acetamido)-6-fluoro-2-hydroxy-3,4-dihydro-2H-benzo[e][1,2]oxaborinine-8-carboxylic acid] | 32 to 64 (≈ 58.4 to 117 µM) | – | MIC [2]: 32 to 64 mg/L (≈ 58.4 to 117 µM)
CCN1CCN(C(=O)NC(C(=O)N[C@H]2Cc3cccc(C(=O)O)c3OB2O)c2ccc(O)cc2F)C(=O)C1=O (stereo partly drawn) [Example 87, (3R)-3-(2-(4-ethyl-2,3-dioxopiperazine-1-carboxamido)-2-(2-fluoro-4-hydroxyphenyl)acetamido)-2-hydroxy-3,4-dihydro-2H-benzo[e][1,2]oxaborinine-8-carboxylic acid] | 32 to 64 (≈ 59 to 118 µM) | – | –
CCN1CCN(C(=O)NC(C(=O)N[C@H]2Cc3cccc(C(=O)O)c3OB2O)c2cccs2)C(=O)C1=O (stereo partly drawn) [Example 115, (3R)-3-(2-(4-ethyl-2,3-dioxopiperazine-1-carboxamido)-2-(thiophen-2-yl)acetamido)-2-hydroxy-3,4-dihydro-2H-benzo[e][1,2]oxaborinine-8-carboxylic acid] | 32 to 64 (≈ 62.2 to 124 µM) | – | –
O=C(O)c1cccc2c1OB(O)[C@@H](NC(=O)C(NC(=O)N1CCN(CCF)C(=O)C1=O)c1ccc(O)c(O)c1Cl)C2 (stereo partly drawn) [Example 71, (3R)-3-(2-(2-chloro-3,4-dihydroxyphenyl)-2-(4-(2-fluoroethyl)-2,3-dioxopiperazine-1-carboxamido)acetamido)-2-hydroxy-3,4-dihydro-2H-benzo[e][1,2]oxaborinine-8-carboxylic acid] | 8 to 16 (≈ 13.5 to 27 µM) | < 10 | –
CCN1CCN(C(=O)NC(C(=O)N[C@H]2Cc3cccc(C(=O)O)c3OB2O)c2cc(O)c(O)cc2F)C(=O)C1=O (stereo partly drawn) [Example 90, (3R)-3-(2-(4-ethyl-2,3-dioxopiperazine-1-carboxamido)-2-(2-fluoro-4,5-dihydroxyphenyl)acetamido)-2-hydroxy-3,4-dihydro-2H-benzo[e][1,2]oxaborinine-8-carboxylic acid] | 8 to 16 (≈ 14.3 to 28.7 µM) | – | –
NS(=O)(=O)c1ccc(C(NC(=O)N2CCN(CCF)C(=O)C2=O)C(=O)N[C@H]2Cc3cccc(C(=O)O)c3OB2O)cc1 (stereo partly drawn) [Example 103, (3R)-3-(2-(4-(2-fluoroethyl)-2,3-dioxopiperazine-1-carboxamido)-2-(4-sulfamoylphenyl)acetamido)-2-hydroxy-3,4-dihydro-2H-benzo[e][1,2]oxaborinine-8-carboxylic acid] | – | 10 to 100 | –
CCN1CCN(C(=O)NC(C(=O)N[C@H]2Cc3cccc(C(=O)O)c3OB2O)c2ccc(O)c(O)c2F)C(=O)C1=O (some centres unmarked) [Example 70] | 32 to 64 (≈ 57.3 to 115 µM) | < 10 | –
CCN1CCN(C(=O)NC(C(=O)N[C@H]2Cc3cccc(C(=O)O)c3OB2O)c2ccc(B(O)O)cc2)C(=O)C1=O (some centres unmarked) [Example 112] | – | – | MIC ([1]; read-out: Microbiological Activity (MIC in mg/L), E. coli DH5α/pLBII-CTX-M15): 32 to 64 mg/L (≈ 58 to 116 µM)
CCN1CCN(C(=O)NC(C(=O)N[C@H]2Cc3ccc(F)c(C(=O)O)c3OB2O)c2csc(N)n2)C(=O)C1=O (stereo partly drawn) [Example 109, (3R)-3-(2-(2-aminothiazol-4-yl)-2-(4-ethyl-2,3-dioxopiperazine-1-carboxamido)acetamido)-7-fluoro-2-hydroxy-3,4-dihydro-2H-benzo[e][1,2]oxaborinine-8-carboxylic acid] | 2 to 4 (≈ 3.65 to 7.3 µM) | – | –
CCN1CCN(C(=O)NC(C(=O)N[C@H]2Cc3cccc(C(=O)O)c3OB2O)c2ccc(O)c(O)c2Cl)C(=O)C1=O (stereo partly drawn) [Example 37, (3R)-3-(2-(2-chloro-3,4-dihydroxyphenyl)-2-(4-ethyl-2,3-dioxopiperazine-1-carboxamido)acetamido)-2-hydroxy-3,4-dihydro-2H-benzo[e][1,2]oxaborinine-8-carboxylic acid] | 8 to 16 (≈ 13.9 to 27.8 µM) | – | MIC [2]: 8 to 16 mg/L (≈ 13.9 to 27.8 µM)
CCN1CCN(C(=O)NC(C(=O)N[C@H]2Cc3cccc(C(=O)O)c3OB2O)c2cccc(O)n2)C(=O)C1=O (stereo partly drawn) [Example 117, (3R)-3-(2-(4-ethyl-2,3-dioxopiperazine-1-carboxamido)-2-(6-hydroxypyridin-2-yl)acetamido)-2-hydroxy-3,4-dihydro-2H-benzo[e][1,2]oxaborinine-8-carboxylic acid] | 32 to 64 (≈ 60.9 to 122 µM) | – | –
CCN1CCN(C(=O)NC(C(=O)N[C@H]2Cc3cccc(C(=O)O)c3OB2O)c2cnc(N)s2)C(=O)C1=O (stereo partly drawn) [Example 51, (3R)-3-(2-(2-aminothiazol-5-yl)-2-(4-ethyl-2,3-dioxopiperazine-1-carboxamido)acetamido)-2-hydroxy-3,4-dihydro-2H-benzo[e][1,2]oxaborinine-8-carboxylic acid] | – | – | MIC [2]: 8 to 16 mg/L (≈ 15.1 to 30.2 µM)
